# Results reported in patent US5334612A, “Pharmaceutical compositions containing as active substance sulphur-containing carboxylic acids and their use in combating retroviruses” (priority 1988, dated 1994).
# How the values were obtained:
# [1] = animal experiments, rats and mice; cited from earlier work
# [2] = Acute toxicity in the mouse (LD 50, Miller and Tainter); conditions: in vivo, oral
# Procedure: The acute toxicity of α-lipoic acid in the mouse (expressed in the LD 50 mg/kg; Method after Miller and Tainter: Proc. Soc. Exper. Biol. a. Med. 57 (1944) 261) is, for example, in oral application above 400 mg/kg body weight, that of dihydrolipoic acid above 200 mg/kg body weight mouse.
# [3] = test system: plasma p24 antigen (HIV); test: Plasma p24 antigen level (ELISA) in HIV-infected patients; type: in vivo, human patients (HIV)
# Procedure: (§1) Determination of the plasma p24 antigen level using a commercial ELISA; p24 is the designation for a structural protein of the HIV virus; ELISA (Enzyme Linked Immuno Sorbent Assay) is a test technique frequently used in virology in order to determine proteins, antigens, etc.
# (§2) The following results were recorded in 4 patients in Walter Reed stage 6. Application of α-lipoic acid was, by means of infusion of an α-lipoic acid solution having the following composition: 10 ml of aqueous solution containing 250 mg of α-lipoic acid in the form of the ethylene diamine salt (=323 mg salt) as well as 1 g of 1,2-propylene glycol and 100 mg of benzyl alcohol.
# Walter Reed stages: division of HIV-infected patients according to the degree of their clinical symptoms. In stage 0 no HIV virus can be detected. Stage 6 relates to the final stage of AIDS.
# [4] = test system: HIV; test: Virological markers overall in HIV-infected patients; type: in vivo
# Procedure: as §1
# (§3) Virus isolation with cocultivation: patient lymphocytes are cocultivated with donor lymphocytes. The virus produced by these cells (p24) is measured using an ELISA after 21 days (standard method).
# (§4) Virus isolation without cocultivation: the production of virus (p24) from 1×10^6 patient lymphocytes is quantitatively measured using an ELISA after 11 days. No donor lymphocytes are added in this standardized method. Virus production may be quoted in pg^1 p24/ml/200,000 cells. (Newly developed method). Cell titration: virus isolation is carried out starting from a decreasing number of patient lymphocytes (e.g. 10^6, 10^5, 10^4).
# (§5) Determination of the plasma titer which states the number of infectious viruses in the plasma.
# as §2
# [5] = test system: HIV in freshly infected Jurkat cells; test: Plaque test, freshly infected Jurkat cells; type: cell-based; conditions: 7 days
# Procedure: To compare both compounds, freshly split Jurkat cells were infected with HIV (8×10^3 PFU) and afterwards recombinant alpha interferon (rIF) (70 units/ml) or 35 ng/ml of α-lipoic acid was added thereto using a pipette. The experiment was concluded after 7 days in order to assess in particular the growth of the first virus generation.
# Cells are taken up in fresh medium and may now be defined as being freshly infected cells. As distinct from permanently infected cells, far fewer cells are virus carriers, and therefore synchronously treated, i.e. the first and second virus generation is given off into the culture supernatant relatively at the same time on the 3rd and 7th day. These virus generations may be quantified on these days (plaque and reverse transcriptase test) and may be compared. The term "single hit kinetics" is also used in this context.
# 3. α-lipoic acid is added using a pipette.
# Cells are cultured for 7 days in an incubator.
# On day 4 and day 7 samples are withdrawn from the culture for plaque and RT assay.
# [6] = test system: HIV-1 in permanently infected Molt4 cells; test: Plaque test, tumor cell line (Molt4) permanently infected with HIV-1; type: cell-based
# Description: (§6) The inhibitory effect is shown in a cell line permanently infected with HIV-1.
# (§7) 1. Negative (non infected) cells (for example Molt 4) are removed from the culture bottle with RPMI 1640 culture medium and centrifuged down in an appropriate vessel. As a basic principle, the negative cells may be the cells from any CD4 receptor-positive T-cell line. It is, for example, possible to use the following commercially available cell lines: H9, Hut78, SupT1, Jurkat, Molt4. Molt4 is for example a monoclonal T-cell line of the peripheral blood of a cancer patient. T-cell lines are derived from human tumors, for example from specific forms of leukemia. Cell lines of this type grow permanently as long as they are kept in the appropriate culture medium and CO2 concentration in an incubator at 37° C. These lines may be purchased from the American Type Culture Collection (ATCC).
# 2. These Molt4 cells are then resuspended (taken up) in highly virus-containing culture medium (RPMI 1640+10% fetal calf serum) placed in a culture flask and incubated (cultivated) for ca. 12 hours in an incubator at 37° C. and 5% CO2. This infects part (depending on the concentration of the infectious virus) of the cells.
# 3. After 12 hours the cells are again separated by centrifugation and resuspended in fresh medium (RPMI 1640, containing no virus) and cultivated for ca. 4 weeks in an incubator.
# 4. Once every week the medium is completely replaced (separated by centrifugation, resuspended, etc.) and negative, non-infected cells are added.
# 5. After ca. 4 weeks 80-100% of the cells are infected=permanently infected cell line. The infection is for example determined using immunofluorescence. The cells infected in this manner produce HIV in a titer range of about 10^5 -10^6 infectious units (PFU). The tumor cell line permanently infected in this manner (Molt4) is treated for three weeks with 70 μg of α-lipoic acid/ml. Every three days culture medium and α-lipoic acid are replaced and the activity of the virus determined in the reverse transcriptase and plaque test. […]
# [7] = test system: HIV from patient lymphocytes; test: Virus isolation with cocultivation (standard method) from patient lymphocytes; type: in vivo, human patients (HIV)
# Procedure: as §3, §2
# [8] = test system: HIV-1; test: Reduction of infectious viruses (HIV-1) in cell culture supernatant in vitro; type: cell-based
# Procedure: For example the compounds of Formula I have a good, growth-inhibiting effect on HIV (type 1 and 2) which may be shown in vitro for example in the following virological-cell biological test processes:
# 3. Determination of reverse transcriptase in culture supernatant
# 4. Determination of the p24 antigen in culture supernatant
# Thus, for example, a single dose of 0.035 mg/ml of compound I (for example alpha-lipoic acid, racemate) reduces the number of infectious viruses (for example HIV-1) in cell culture supernatant from 100% in the positive control to 0%.
# For the in vitro trials the active substance of Formula I is used, for example in benzyl alcohol as solvent.
# For in vitro investigations into the replication behavior of retroviruses, in particular HIV, it is for example possible to use the following substrates:
# 1. Virus-containing RPMI 1640 medium, for example 1X liquid 041-01875 (synthetic culture medium from Gibeo according to Moore, Gerner and Franklin, H.A. (1967), J.A.M.A. 199; 519) with a concentration of 2×10^3 -1×10^4 infectious units (PFU)/ml.
# 2. The cell lines Jurkat Clone E6-1, Sup T1 and HeLa CT4.
# [9] = cited from earlier work
# [10] = test system: peripheral blood lymphocytes; test: Proliferation rate or lethality of peripheral blood lymphocytes; type: cell-based; conditions: 70 μg/ml
# [11] = test system: HIV-1 in permanently infected Molt4 cells; test: Reverse transcriptase test, tumor cell line (Molt4) permanently infected with HIV-1; type: cell-based; conditions: 70 μg/ml, FIG. 1
# Description: as §6, §7
# 2. These Molt4 cells are then resuspended (taken up) in highly virus-containing culture medium (RPMI 1640+10% fetal calf serum) placed in a culture flask and incubated (cultivated) for ca. 12 hours in an incubator at 37° C. and 5% CO2. […]
# 5. […] The infection is for example determined using immunofluorescence. […] Every three days culture medium and α-lipoic acid are replaced and the activity of the virus determined in the reverse transcriptase and plaque test. […]
# [12] = test system: HIV from patient lymphocytes; test: Virus isolation with cell titration; type: in vivo, human patients (HIV)
# Procedure: as §4, §2
# [13] = test system: infectious HIV in plasma; test: Plasma titer (number of infectious viruses in the plasma); type: in vivo, human patients (HIV)
# Procedure: as §5, §2
# [14] = test system: HIV p24 production from patient lymphocytes; test: Virus isolation without cocultivation, p24 production of patient lymphocytes; type: in vivo, human patients (HIV)
# Procedure: as §4, §2
# [15] = Plasma level at normal oral dosage; type: in vivo; conditions: side effect-free dosage
# [16] = patient 2, towards the end and after conclusion of therapy
compound,measurement,setting,value
"O=C(O)CCCCC(S)CCS (stereo not drawn) [dihydrolipoic acid, 6,8-dimercapto-octanoic acid]",inactivation of snake venom,[1],inactivates snake venom
same,LD50,[2],> 200 mg/kg
O=C(O)CCCCC1CCSS1 (racemic) [α-lipoic acid],"plasma p24 antigen level, fraction of initial value","[3]; cases 1 and 2, ca. 14 days, summary",1/10
same,plasma p24 antigen level,"[3]; patient 1, infusion, 14 days after commencement of therapy, before therapy 0.350 ng/ml",0.05 ng/mL
same,plasma p24 antigen level,"[3]; patient 1, infusion, day 29, before therapy 0.350 ng/ml",0.025 ng/mL
same,plasma p24 antigen level,"[3]; patient 1, infusion, until end of therapy (58 days), before therapy 0.350 ng/ml",0.25 ng/mL
same,"plasma p24 antigen level, initial fall","[3]; patient 2, infusion, prior to treatment 0.4 ng/ml",barely the 10-fold value
same,plasma p24 antigen level,[3]; patient 3,always negative
same,"plasma p24 antigen level, change after end of therapy","[3]; patient 4, after end of therapy",again rose to the initial values
same,plasma p24 antigen level,"[3]; patient 4, infusion, up to the 18th day of therapy, before/at beginning of therapy 0.070 ng/ml",0.005 ng/mL
same,virus markers,[4]; [16],drastic fall in all virus markers
same,improvement in virological markers,[4]; patients with clearly measurable virological markers,marked improvement in these parameters
same,inhibition of viral replication,"[5]; infected, not pre-treated Jurkat cells, α-lipoic acid 35 ng/ml (so in the source), rIF 70 units/ml, FIG. 2 and 3",comparable inhibition
same,inhibition in the plaque test,"[5]; α-lipoic acid 35 ng/ml (so in the source) vs rIF 70 units/ml, FIG. 3",clearer
same,inhibition at 70 µg/mL,"[6]; Human immunodeficiency virus 1, MOLT-4, 72 h, read-out: reduction of infectious virus units",~100%
same,number of infectious virus units,"[6]; after 3 days, 70 μg/ml, FIG. 1",about 0
same,development of tolerance,"[6]; three weeks, 70 μg/ml",no sign or evidence of the development of tolerance after three weeks
same,virus isolation from patient lymphocytes,"[7]; cases 2 and 3, summary",totally negative
same,virus isolation (standard method),"[7]; patient 1, throughout the entire therapy period",positive
same,virus isolation,[7]; [16],repeatedly negative
same,minimal effective concentration,"[8]; Human immunodeficiency virus 1, same test procedure, read-out: low dose at which a virus-inhibiting effect can be demonstrated",1 µg/mL
same,activity at 35 µg/mL,"[8]; Human immunodeficiency virus 1, single dose of 0.035 mg/ml, read-out: number of infectious viruses in cell culture supernatant (positive control 100%)",0%
same,pharmacological properties,[9]; racemate,"anti-inflammatory, antinociceptive (analgesic) and cytoprotective properties"
same,effect in fungus poisoning / coenzyme and growth factor roles,[9]; α-lipoic acid racemate,"acts as co-enzyme in many enzymatic reactions, constitutes a growth factor for certain bacteria and protozoas and is used in death-head fungus poisoning"
same,proliferation rate or lethality of peripheral blood lymphocytes,[10],not substantially affected
same,time from which number of virus units produced falls,[11],≥ 6 days
same,inhibition at 70 µg/mL,"[11]; Human immunodeficiency virus 1, MOLT-4, 504 h, after three weeks, read-out: reduction of number of virus units produced",90%
same,LD50,[2],> 400 mg/kg
same,"cell titer, number of cells from which virus could be cultivated","[12]; patient 2, during treatment, before treatment 10^3 cells",10^5 cells
same,"cell titer, fall","[12]; patient 2, during treatment, before treatment 1000",fell by two orders of magnitude
same,results after conclusion of therapy,"[12]; patient 4, after conclusion of therapy",deteriorated once again
same,virus detection,"[12]; patient 4, end of therapy (in the current range), before therapy virus clearly detected in 2×10^6 cells",hardly any viruses could be detected
same,positive plasma titers,"[13]; cases 2 and 4, in the course of therapy, summary",0
same,plasma titrations,[13]; patient 3,always negative
same,plasma titer,"[13]; patient 4, during therapy, before therapy 10",0
same,virus production in virus isolations from patient lymphocytes,"[14]; cases 2, 3 and 4, summary",markedly lower virus production
same,"production of p24 antigen, change after end of therapy","[14]; patient 3, after the end of therapy",rose again slowly
same,production of p24 antigen,"[14]; patient 3, by day 28, before therapy about 10","0 pg/ml 200,000 cells"
same,"production of p24 antigen, change","[14]; patient 3, day 5 of therapy, before therapy about 10 pg/ml 200,000 cells",doubled
same,"p24 production, change after end of therapy","[14]; patient 4, after end of therapy, also treated with AZT",did not rise significantly
same,"p24 production/ml/200,000 cells, fall","[14]; patient 4, up to the end of therapy, before therapy 8 pg/ml, also being treated with AZT at this time",75%
same,factor by which 70 μg/ml is above the plasma levels,[15],10-20 times
